Like-named read-outs stand apart in the source and are kept apart here.
Columns and labels:
[1] = in vitro; settings: human
[2] = tested on: CV-B3; experiment: microbe, parasite or virus in culture; type: cell-based, coxsackievirus B3; settings: for EC50: Enterovirus B
[3] = in vitro; settings: monkey
[4] = tested on: CV-B3; experiment: microbe, parasite or virus in culture; type: cell-based, coxsackievirus B3; settings: Enterovirus B, CVB3, BGM
[5] = tested on: EV-D68; experiment: microbe, parasite or virus in culture; type: cell-based, enterovirus D68; settings: Enterovirus D
[6] = tested on: EV-A71; experiment: microbe, parasite or virus in culture; type: cell-based, enterovirus A71; settings: Enterovirus A, EVA71, HeLa R19, read-out: EC50 EV-A71
[7] = tested on: CV-B3; experiment: microbe, parasite or virus in culture; type: cell-based, coxsackievirus B3; settings: Enterovirus B
[8] = tested on: CV-A24; experiment: microbe, parasite or virus in culture; type: cell-based, coxsackievirus A24; settings: Enterovirus C, CVA24, HeLa R19, read-out: EC50 CV-A24
[9] = tested on: HeLa R19 cells
[10] = tested on: HRV-B14; experiment: microbe, parasite or virus in culture; type: cell-based, human rhinovirus; settings: Human rhinovirus sp.
[11] = tested on: PV-1; experiment: microbe, parasite or virus in culture; type: cell-based, poliovirus 1; settings: Enterovirus C, HeLa R19, read-out: EC50 PV-1
[12] = in vitro; settings: human; remark: listed apart in the source
[13] = tested on: HRV-A2; experiment: microbe, parasite or virus in culture; type: cell-based, human rhinovirus; settings: Human rhinovirus sp., HRVA2, HeLa R19, read-out: EC50 HRV-A2
[14] = target: T1, human DAT (Homo sapiens, UniProt Q01959); type: cell-based
T1 construct: expressed in transfected cells; host or cells: HEK293 (gift of Dr. Hoener, F. Hoffmann-La Roche)
T1 sequence (Q01959 whole entry): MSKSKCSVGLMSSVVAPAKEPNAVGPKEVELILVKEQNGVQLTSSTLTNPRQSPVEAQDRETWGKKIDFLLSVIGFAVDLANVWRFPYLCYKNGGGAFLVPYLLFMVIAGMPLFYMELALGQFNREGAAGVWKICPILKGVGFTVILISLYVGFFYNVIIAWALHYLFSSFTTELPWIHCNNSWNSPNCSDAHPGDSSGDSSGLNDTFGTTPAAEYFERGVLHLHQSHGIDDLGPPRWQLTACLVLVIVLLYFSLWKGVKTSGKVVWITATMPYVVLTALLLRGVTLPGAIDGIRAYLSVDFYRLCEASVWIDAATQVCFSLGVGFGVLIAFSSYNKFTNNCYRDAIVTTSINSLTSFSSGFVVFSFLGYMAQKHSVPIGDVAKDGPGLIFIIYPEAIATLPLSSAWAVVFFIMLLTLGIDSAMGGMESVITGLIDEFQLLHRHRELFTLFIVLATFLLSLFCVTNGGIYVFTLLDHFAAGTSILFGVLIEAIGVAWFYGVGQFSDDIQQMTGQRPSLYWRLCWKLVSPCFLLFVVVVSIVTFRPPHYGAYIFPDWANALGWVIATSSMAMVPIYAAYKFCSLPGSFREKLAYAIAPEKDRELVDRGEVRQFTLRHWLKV

[15] = CVB3, HeLa R19, read-out: CV-B3 EC50 Average
[16] = CVB3, HeLa R19, read-out: CV-B3 Exp 1 EC50
[17] = CVB3, HeLa R19, read-out: CV-B3 Exp2 EC50
[18] = EVD68, HeLa R19, read-out: EC50 EV-D68
[19] = EVD68, HeLa R19, read-out: EC50 Exp1
[20] = EVD68, HeLa R19, read-out: EC50 Exp2
[21] = CVB3, HAP1, read-out: EC50 Hap1 Average
[22] = CVB3, HAP1, read-out: Exp 1 EC50 Hap1
[23] = CVB3, HAP1, read-out: Exp 2 EC50 Hap1
[24] = HRVB14, HeLa R19, read-out: EC50 HRV-B14
[25] = CVB3, HeLa R19, read-out: EC50 HelaR19 Average
[26] = CVB3, HeLa R19, read-out: Exp 1 EC50 HelaR19
[27] = CVB3, HeLa R19, read-out: Exp 2 EC50 HelaR19

SMILES | CC50 ([1]; CC50) | CC50 ([1]; CC50 Average) | CC50 ([1]; Exp 1 CC50) | CC50 ([1]; Exp2 CC50) | antiviral activity against CV-B3 (in words) [2] | EC50 ([2]; CVB3, HeLa R19) | EC50 [2, 15] | EC50 [2, 16] | EC50 [2, 17] | CC50 ([3]; CC50) | CC50 ([3]; CC50 BGM Average) | CC50 ([3]; Exp 1 CC50 BGM) | CC50 ([3]; Exp 2 CC50 BGM) | EC50 ([4]; read-out: EC50 BGM Average) | EC50 ([4]; read-out: Exp 1 EC50 BGM) | EC50 [5, 18] | EC50 [5, 19] | EC50 [5, 20] | EC50 [6] | EC50 [7, 21] | also measured
COc1ccc(N(Cc2ccc(F)cc2)C(C)=O)cc1 [Compound 5a, N-(4-fluorobenzyl)-N-(4-methoxyphenyl)acetamide] | > 30 µM | > 30 µM | > 30 µM | > 30 µM | loss of antiviral activity | > 30 µM | > 30 µM | > 30 µM | > 30 µM | – | – | – | – | – | – | – | – | – | – | – | –
COc1ccc(N(Cc2ccc(F)cc2)S(=O)(=O)c2ccco2)cc1 [Compound 5b, N-(4-fluorobenzyl)-N-(4-methoxyphenyl)furan-2-sulfonamide] | > 30 µM | > 30 µM | > 30 µM | > 30 µM | loss of antiviral activity | > 30 µM | > 30 µM | > 30 µM | > 30 µM | – | – | – | – | – | – | – | – | – | – | – | –
COc1ccc(N(Cc2ccc(F)cc2)C(=O)c2ccc[nH]2)cc1 [Compound 5c, N-(4-fluorobenzyl)-N-(4-methoxyphenyl)-1H-pyrrole-2-carboxamide] | – | > 30 µM | > 30 µM | > 30 µM | – | – | 3.01 µM | 3.21 µM | 2.81 µM | > 100 µM | 56 µM | 58 µM | 54 µM | 4.18 µM | 3.86 µM | 3.47 ± 0.08 µM | 3.39 µM | 3.54 µM | > 30 µM | 2.52 µM | EC50 ([4]; read-out: Exp 2 EC50 BGM): 4.5 µM; EC50 [7, 22]: 2.05 µM; EC50 [7, 23]: 2.99 µM; EC50 [8]: > 30 µM; cytotoxicity (in words) [9]: no cytotoxicity; CC50 ([1]; CC50 HelaR19 Average): > 100 µM; CC50 ([1]; Exp 1 CC50 HelaR19): > 100 µM; CC50 ([1]; Exp 2 CC50 HelaR19): > 100 µM; EC50 [10, 24]: > 30 µM; EC50 [11]: > 30 µM; CC50 ([12]; CC50): > 100 µM; CC50 ([12]; CC50 Hap1 Average): > 100 µM; CC50 ([12]; Exp 1 CC50 Hap1): > 100 µM; CC50 ([12]; Exp 2 CC50 Hap1): > 100 µM; EC50 ([2]; CVB3, HeLa): 4.82 ± 0.14 µM; EC50 [2, 25]: 4.81 µM; EC50 [2, 26]: 4.95 µM; EC50 [2, 27]: 4.68 µM; EC50 [13]: > 30 µM
COc1ccc(N(Cc2ccc(F)cc2)C(=O)c2cccs2)cc1 [Compound 5d, N-(4-Fluorobenzyl)-N-(4-methoxyphenyl)thiophene-2-carboxamide] | – | > 30 µM | > 30 µM | > 30 µM | – | – | – | 0.47 µM | 0.55 µM | 66 ± 1.05 µM | 66 µM | 65 µM | 67.1 µM | 0.63 µM | 0.49 µM | 2.82 ± 0.4 µM | 2.42 µM | 3.21 µM | > 30 µM | 0.25 µM | EC50 ([4]; read-out: Exp 2 EC50 BGM): 0.77 µM; EC50 [7, 22]: 0.17 µM; EC50 [8]: > 30 µM; cytotoxicity (in words) ([9]; human, monkey): cytotoxicity in a similar range as the parental compound 1; CC50 ([1]; CC50 HelaR19 Average): 53 µM; CC50 ([1]; Exp 1 CC50 HelaR19): 52 µM; CC50 ([1]; Exp 2 CC50 HelaR19): 54.1 µM; EC50 ([10]; HRVB14, HeLa R19, read-out: EC50 Exp1): 9.65 µM; EC50 ([10]; HRVB14, HeLa R19, read-out: EC50 Exp2): 8.93 µM; EC50 [10, 24]: 9.29 ± 0.36 µM; EC50 [11]: > 30 µM; CC50 ([12]; CC50 Hap1 Average): 53.9 µM; CC50 ([12]; Exp 1 CC50 Hap1): 53.9 µM; CC50 ([12]; Exp 2 CC50 Hap1): 54 µM; increase of antiviral activity against CV-B3 [2]: approximately 4 fold; EC50 ([2]; CVB3, HeLa R19, read-out: 50% effective concentration [EC50]): 0.51 ± 0.05 µM; EC50 [2, 26]: 0.52 µM; EC50 [2, 27]: 0.31 µM; EC50 [13]: > 30 µM
COc1ccc(N(Cc2ccc(F)cc2)C(=O)c2ccccn2)cc1 [Compound 5e, N-(4-fluorobenzyl)-N-(4-methoxyphenyl)picolinamide] | – | > 30 µM | > 30 µM | > 30 µM | – | – | 6.44 µM | 6.02 µM | 6.86 µM | > 100 µM | > 100 µM | > 100 µM | > 100 µM | 17.8 µM | 16.7 µM | 10.5 ± 1.37 µM | 11.8 µM | 9.08 µM | > 30 µM | 15.9 µM | EC50 ([4]; read-out: Exp 2 EC50 BGM): 18.9 µM; EC50 ([7]; CVB3, HAP1): 15.8 ± 1.65 µM; EC50 [7, 22]: 17.5 µM; EC50 [7, 23]: 14.2 µM; EC50 [8]: > 30 µM; cytotoxicity (in words) [9]: no cytotoxicity; CC50 ([1]; CC50 HelaR19 Average): > 100 µM; CC50 ([1]; Exp 1 CC50 HelaR19): > 100 µM; CC50 ([1]; Exp 2 CC50 HelaR19): > 100 µM; EC50 [10, 24]: > 30 µM; EC50 [11]: > 30 µM; CC50 ([12]; CC50): > 100 µM; CC50 ([12]; CC50 Hap1 Average): > 100 µM; CC50 ([12]; Exp 1 CC50 Hap1): > 100 µM; CC50 ([12]; Exp 2 CC50 Hap1): > 100 µM; EC50 [2, 25]: 8.87 µM; EC50 [2, 26]: 8.41 µM; EC50 [2, 27]: 9.32 µM; EC50 [13]: > 30 µM
COc1ccc(N(Cc2ccc(F)cc2)C(=O)C2CCCO2)cc1 (stereo not drawn) [Compound 5f, N-(4-Fluorobenzyl)-N-(4-methoxyphenyl)tetrahydrofuran-2-carboxamide] | > 30 µM | > 30 µM | > 30 µM | > 30 µM | loss of antiviral activity | > 30 µM | > 30 µM | > 30 µM | > 30 µM | – | – | – | – | – | – | – | – | – | – | – | –
COc1ccc(N(Cc2ccc(F)cc2)Cc2ccco2)cc1 [Compound 5g, N-(4-fluorobenzyl)-N-(furan-2-ylmethyl)-4-methoxyaniline] | > 30 µM | > 30 µM | > 30 µM | > 30 µM | loss of antiviral activity | > 30 µM | > 30 µM | > 30 µM | > 30 µM | – | – | – | – | – | – | – | – | – | – | – | –
CNCC(=O)N(Cc1ccc(F)cc1)c1ccc(OC)cc1 [Compound 6, N-(4-fluorobenzyl)-N-(4-methoxyphenyl)-2-(methylamino)acetamide] | > 30 µM | > 30 µM | > 30 µM | > 30 µM | loss of antiviral activity | > 30 µM | > 30 µM | > 30 µM | > 30 µM | – | – | – | – | – | – | – | – | – | – | – | –
COc1ccc(N(Cc2ccco2)C(=O)c2ccc(F)cc2)cc1 [Compound 15, 4-Fluoro-N-(furan-2-ylmethyl)-N-(4-methoxyphenyl)benzamide] | > 30 µM | > 30 µM | > 30 µM | > 30 µM | abolished antiviral acitivty | > 30 µM | > 30 µM | > 30 µM | > 30 µM | – | – | – | – | – | – | – | – | – | – | – | –
COc1ccc(N(Cc2ccccc2)C(=O)c2ccco2)cc1 [Compound 19c, N-Benzyl-N-(4-methoxyphenyl)furan-2-carboxamide] | – | > 30 µM | > 30 µM | > 30 µM | – | – | 4.07 µM | 4.32 µM | 3.82 µM | > 100 µM | > 100 µM | > 100 µM | > 100 µM | 4.3 µM | 3.95 µM | 8.94 ± 0.82 µM | 8.12 µM | 9.76 µM | > 30 µM | 2.12 µM | EC50 [7, 22]: 2.15 µM; EC50 [7, 23]: 2.09 µM; EC50 [8]: > 30 µM; cytotoxicity (in words) [9]: did not show any cytotoxicity; CC50 ([1]; CC50 HelaR19 Average): > 100 µM; CC50 ([1]; Exp 1 CC50 HelaR19): > 100 µM; CC50 ([1]; Exp 2 CC50 HelaR19): > 100 µM; EC50 [10, 24]: > 30 µM; EC50 [11]: > 30 µM; CC50 ([12]; CC50): > 100 µM; CC50 ([12]; CC50 Hap1 Average): > 100 µM; CC50 ([12]; Exp 1 CC50 Hap1): > 100 µM; CC50 ([12]; Exp 2 CC50 Hap1): > 100 µM; increase or decrease of antiviral activity against CV-B3 [2]: less than 3 fold; EC50 ([2]; CVB3, HeLa): 4.42 ± 0.36 µM; EC50 [2, 25]: 4.41 µM; EC50 [2, 26]: 4.06 µM; EC50 [2, 27]: 4.77 µM; EC50 [13]: > 30 µM
CNCCC(Oc1ccc(C(F)(F)F)cc1)c1ccccc1 (stereo not drawn) [fluoxetine, reference compound] | – | – | – | – | – | – | – | – | – | – | – | – | – | – | – | – | – | – | – | – | inhibition of DAT function (in words) [14]: promiscuously inhibited also the DAT and NET activity at 100 μM

Source: paper PMC7673538 (PLoS Biology, 2020)
